Data as given in ChEMBL document CHEMBL1145270 (Bioorg Med Chem Lett, 2005).

Legend:
[1] = molecular target: T1, Alpha-2C adrenergic receptor (Homo sapiens, UniProt P18825); test: In vitro binding affinity measured by displacement of [3H]rauwolscine from alpha-2c adrenergic receptor expressed in CHO cells in presence of phentolamine; type: cell-based
T1 sequence (P18825 whole entry): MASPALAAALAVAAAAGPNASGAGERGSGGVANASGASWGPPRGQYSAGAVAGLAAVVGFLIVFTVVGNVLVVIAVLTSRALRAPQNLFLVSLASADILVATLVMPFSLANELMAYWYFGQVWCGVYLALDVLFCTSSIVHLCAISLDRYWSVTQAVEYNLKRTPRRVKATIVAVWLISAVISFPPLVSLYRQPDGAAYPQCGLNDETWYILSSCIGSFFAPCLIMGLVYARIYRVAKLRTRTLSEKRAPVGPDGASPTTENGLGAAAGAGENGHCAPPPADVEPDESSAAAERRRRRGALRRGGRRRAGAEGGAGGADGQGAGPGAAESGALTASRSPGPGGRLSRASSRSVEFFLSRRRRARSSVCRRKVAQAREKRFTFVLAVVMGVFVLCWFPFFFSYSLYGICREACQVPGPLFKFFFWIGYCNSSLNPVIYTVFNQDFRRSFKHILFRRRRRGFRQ

[2] = molecular target: T2, Alpha-2A adrenergic receptor (Homo sapiens, UniProt P08913); test: In vitro binding affinity towards alpha-2a adrenergic receptor
T2 sequence (P08913 whole entry): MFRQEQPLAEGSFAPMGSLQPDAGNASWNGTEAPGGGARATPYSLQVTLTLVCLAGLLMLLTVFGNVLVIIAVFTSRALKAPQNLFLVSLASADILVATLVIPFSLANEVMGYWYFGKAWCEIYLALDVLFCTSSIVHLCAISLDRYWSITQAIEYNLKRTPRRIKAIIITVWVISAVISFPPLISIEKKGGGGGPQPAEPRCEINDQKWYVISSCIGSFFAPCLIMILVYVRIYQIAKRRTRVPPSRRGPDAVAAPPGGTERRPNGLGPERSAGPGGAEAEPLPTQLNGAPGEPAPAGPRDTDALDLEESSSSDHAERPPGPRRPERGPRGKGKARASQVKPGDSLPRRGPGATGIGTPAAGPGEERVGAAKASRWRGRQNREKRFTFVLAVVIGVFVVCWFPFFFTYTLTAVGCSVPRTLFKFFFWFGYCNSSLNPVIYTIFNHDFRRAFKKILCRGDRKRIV

[3] = molecular target: T3, Alpha-2B adrenergic receptor (Homo sapiens, UniProt P18089); test: In vitro binding affinity towards alpha-2b adrenergic receptor
T3 sequence (P18089 whole entry): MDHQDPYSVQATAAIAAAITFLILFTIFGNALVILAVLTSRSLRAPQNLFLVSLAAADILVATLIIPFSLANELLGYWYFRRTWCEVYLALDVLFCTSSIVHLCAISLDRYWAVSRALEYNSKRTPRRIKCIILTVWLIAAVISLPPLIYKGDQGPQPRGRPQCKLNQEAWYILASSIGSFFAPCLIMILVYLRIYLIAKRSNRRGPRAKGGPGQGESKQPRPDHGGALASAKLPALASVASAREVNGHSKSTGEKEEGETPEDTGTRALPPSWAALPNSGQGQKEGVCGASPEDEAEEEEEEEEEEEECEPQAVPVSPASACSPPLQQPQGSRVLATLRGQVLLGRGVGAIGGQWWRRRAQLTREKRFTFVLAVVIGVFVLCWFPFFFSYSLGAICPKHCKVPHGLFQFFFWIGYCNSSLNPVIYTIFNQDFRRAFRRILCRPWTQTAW

Ki [1] [nM]	Ki [2] [nM]	Ki [3] [nM]	Structure (SMILES)
3	–	–	O=C(O)CCCNC(=O)[C@@H]1C2C[C@H]3c4[nH]c5ccccc5c4CCN3C[C@@H]2CC[C@@H]1O (stereo partly specified)
2.8	–	–	CC(C)(C)OC(=O)NCCCNC(=O)[C@@H]1C2C[C@H]3c4[nH]c5ccccc5c4CCN3C[C@@H]2CC[C@@H]1O (stereo partly specified)
32	–	–	NCCCNC(=O)[C@@H]1C2C[C@H]3c4[nH]c5ccccc5c4CCN3C[C@@H]2CC[C@@H]1O (stereo partly specified)
8	–	–	COC(=O)CNC(=O)[C@@H]1C2C[C@H]3c4[nH]c5ccccc5c4CCN3C[C@@H]2CC[C@@H]1O (stereo partly specified)

Continued, compound first:

Structure (SMILES)	Ki [1] [nM]	Ki [2] [nM]	Ki [3] [nM]
COC(=O)CNC(=O)CNC(=O)[C@@H]1C2C[C@H]3c4[nH]c5ccccc5c4CCN3C[C@@H]2CC[C@@H]1O (stereo partly specified)	5.2	–	–
O=C(CCCNC(=O)[C@@H]1C2C[C@H]3c4[nH]c5ccccc5c4CCN3C[C@@H]2CC[C@@H]1O)OCc1ccccc1 (stereo partly specified)	0.65	29	1300
O=C(NCCCNC(=O)[C@@H]1C2C[C@H]3c4[nH]c5ccccc5c4CCN3C[C@@H]2CC[C@@H]1O)OCc1ccccc1 (stereo partly specified)	1.1	–	–
O=C(NCCCNC(=O)[C@@H]1C2C[C@H]3c4[nH]c5ccccc5c4CCN3C[C@@H]2CC[C@@H]1O)[C@H]1[C@@H]2C[C@@H]3c4[nH]c5ccccc5c4CCN3C[C@H]2CC[C@H]1O (stereo partly specified)	8.5	–	–
O=C(O)[C@@H]1C2C[C@H]3c4[nH]c5ccccc5c4CCN3C[C@@H]2CC[C@@H]1O (stereo partly specified)	19	–	–
